The values that follow come from patent US9968616B2, “Discovery of FDA-approved drugs as inhibitors of fatty acid binding protein 4 using molecular docking screening” (The Chinese University of Hong Kong, priority 2014, dated 2018).

The term inhibition denotes the share of the control response that was lost under treatment. What is called IC50 is the concentration at which inhibition is half-maximal.

One series has as its target human FABP4 (Homo sapiens, UniProt P15090). The series is described as follows: FABP4 Inhibitor/Ligand Screening Assay Kit, cell-free ligand displacement fluorescence-labeled probe assay. In kind it is binding. The note with it: for inhibition at 10 µM: read-out: % FABP4 inhibition (10 μM).
In series [1] the test system is 3T3-L1 cells. Description: Adipolysis assay (glycerol release) in 3T3-L1 cells. It is filed as cell-based, Mouse. The note with it: 10 μM, FIG. 3B; for isoproterenol-stimulated adipolysis: isoproterenol 100 nM for 24 hours. The method, then: Mouse 3T3-L1 pre-adipocytes were cultured in Dulbecco's Modified Eagle's Medium (DMEM) supplemented with 10% fetal bovine serum, 100 units/ml penicillin and 100 μg/ml streptomycin at 37° C. in a humidified 95% air and 5% CO2 atmosphere. All cell culture reagents were purchased from Invitrogen (Carlsbad, Calif., USA). To initiate 3T3-L1 adipocyte differentiations, the standard differentiation cocktail (250 nM dexamethasone, 100 mM 3-isobutyl-1-methylxanthine and 175 nM human insulin, all purchased from Sigma, St. Louis, Mo.) was added to the medium after 2 days post-confluence. After 2 days, the medium was replaced with fresh complete medium containing insulin. Culture medium was changed every 2 days. Levofloxacin or benzbromarone (BBR) (Sigma, St. Louis, Mo.) was dissolved in DMSO and added to the medium at the beginning of pre-adipocyte differentiations. […] Confluent 3T3-L1 pre-adipocytes (day 0) were stimulated by the differentiation cocktail and cultured for 2 days with culture medium (Control), 10 μM of levofloxacin (Levofloxacin) or 10 μM benzbromarone (BBR). At day 2, the culture medium was collected and the extent of adipolysis was evaluated using Adipolysis Assay Kit (Cayman Chemical: 10009381, MI, US). During adipolysis, triglycerides are hydrolysed to release free fatty acids and glycerol. The amount of glycerol released into the medium as measured by the kit is proportional to the degree of adipolysis. Basal adipolysis and isoproterenol-induced adipolysis were studied. Isoproterenol was included as a positive control for screening pharmaceuticals that are known to regulate the adipolysis. Cells were treated with 100 nM of isoproterenol for 24 hours after the treatment with culture medium, levofloxacin or benzbromarone. Results were repeated at least three times from three independent experiments and presented as mean±SD, n=3 (FIG. 3B). The results were statistically analyzed by one-way ANOVA test. *, P<0.05; compared with the control group. #, P<0.05; compared with the isoproterenol-treated group.

Another series has as its system PPARγ. Description: Western blot detection of PPARγ protein level in 3T3-L1 cells. In kind it is cell-based, Mouse. Conditions: 10 μM, Day 6, cell lysate, FIG. 3E. The procedure:
Mouse 3T3-L1 pre-adipocytes were cultured in Dulbecco's Modified Eagle's Medium (DMEM) supplemented with 10% fetal bovine serum, 100 units/ml penicillin and 100 μg/ml streptomycin at 37° C. in a humidified 95% air and 5% CO2 atmosphere. All cell culture reagents were purchased from Invitrogen (Carlsbad, Calif., USA). To initiate 3T3-L1 adipocyte differentiations, the standard differentiation cocktail (250 nM dexamethasone, 100 mM 3-isobutyl-1-methylxanthine and 175 nM human insulin, all purchased from Sigma, St. Louis, Mo.) was added to the medium after 2 days post-confluence. After 2 days, the medium was replaced with fresh complete medium containing insulin. Culture medium was changed every 2 days. Levofloxacin or benzbromarone (BBR) (Sigma, St. Louis, Mo.) was dissolved in DMSO and added to the medium at the beginning of pre-adipocyte differentiations.
As in the above Oil Red O Staining assay, cells were harvested on Day 6 and the total protein was collected for western blotting to estimate the PPARγ protein level in the treated 3T3-L1 cells. […] Specific bands were detected using […] (BCIP) and nitro blue tetrazolium (NBT) system (Bio-Rad, Hercules, Calif.) and photographed (FIG. 3E). […]

Series [2] has as its system 3T3-L1 cells. The series is described as follows: Oil Red O staining (induction of adipogenesis). It is filed as cell-based, Mouse. The note with it: 10 μM, days 0-6 of differentiation, versus control group, FIG. 3D.
In series [3] the test system is 3T3-L1 cells. Description: Cell viability (MTT assay). In kind it is cell-based, Mouse. Conditions: 10 μM, regardless of the isoproterenol treatment, FIG. 3C. (In general: Formazan colour is commonly taken as a measure of viable cells.)
The subject of series [4] is 3T3-L1 cells. Conditions: 10 μM, reference 31; cited from earlier work.

Each structure is given as a SMILES string.

Sequence of human FABP4 (P15090 whole entry): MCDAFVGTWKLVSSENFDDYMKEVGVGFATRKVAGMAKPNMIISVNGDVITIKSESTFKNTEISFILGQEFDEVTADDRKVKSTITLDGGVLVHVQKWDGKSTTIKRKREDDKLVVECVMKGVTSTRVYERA

Consider `Cc1nc2n(c(=O)c1CCN1CCC(c3noc4cc(F)ccc34)CC1)CCCC2` [Risperidone], for which, on human FABP4, the inhibition at 10 µM was 1.64 ± 12.9%.
`C[C@H]1COc2c(N3CCN(C)CC3)c(F)cc3c(=O)c(C(=O)O)cn1c23` [Levofloxacin, (S)-9-fluoro-2,3-dihydro-3-methyl-10-(4-methylpiperazin-1-yl)-7-oxo-7H-pyrido[1,2,3-de]-1,4-benzoxazine-6-carboxylic acid]: in the series on 3T3-L1 cells [1], the basal adipolysis entry is “inhibited” and the isoproterenol-stimulated adipolysis result is listed as “inhibited”. The half-inhibitory concentration (IC50) on human FABP4 (dose-response, Prism 5, read-out: IC50 FABP4 activity inhibition) came to 5.83 µM. Moreover, the inhibition at 10 µM on human FABP4 is 70 ± 12.2%. The “protein expression of PPARγ” value with PPARγ is reported as “did not increase”. In the series with 3T3-L1 cells [2], the “lipid accumulation (red dots, Oil Red O)” value is “did not promote lipid accumulation”. Besides, in the series on 3T3-L1 cells [3], the “proliferation/viability of 3T3-L1 cells (cytotoxicity)” value is on record as “not affected”.
For the molecule `CCc1oc2ccccc2c1C(=O)c1cc(Br)c(O)c(Br)c1` [BBR, benzbromarone], in the series with 3T3-L1 cells [1], the basal adipolysis result is given as “inhibitory effects were also observed” and the isoproterenol-stimulated adipolysis result was “inhibitory effects were also observed”. Also, the “adipolysis (literature report)” value with 3T3-L1 cells [4] was “inhibits the adipolysis”. For the same molecule, the “proliferation/viability of 3T3-L1 cells (cytotoxicity)” value in the series with 3T3-L1 cells [3] was “not affected”.
Take `Cc1nc2n(c(=O)c1CCN1CCC(c3noc4cc(F)ccc34)CC1)CCCC2O` (stereo not drawn) [Paliperidone]: the inhibition at 10 µM on human FABP4 is 5.12 ± 6.9%.
`O=c1[nH]c2ccccc2n1C1CCN(CCCC(c2ccc(F)cc2)c2ccc(F)cc2)CC1` [Pimozide]: the inhibition at 10 µM on human FABP4 amounted to 47 ± 11.3%.
`N[C@@H]1[C@H]2CN(c3nc4c(cc3F)c(=O)c(C(=O)O)cn4-c3ccc(F)cc3F)C[C@@H]12` [Trovafloxacin]: the inhibition at 10 µM at human FABP4 worked out at 57.5 ± 12.2%.
